Experimental data reported in patent US7939270B2 (priority 2005, dated 2011).

Target: WT αHL protein pore (Staphylococcus aureus, UniProt P09616)
Type: binding
Conditions: pH 7

Chain of WT αHL protein pore (P09616 27-319 limits assumed): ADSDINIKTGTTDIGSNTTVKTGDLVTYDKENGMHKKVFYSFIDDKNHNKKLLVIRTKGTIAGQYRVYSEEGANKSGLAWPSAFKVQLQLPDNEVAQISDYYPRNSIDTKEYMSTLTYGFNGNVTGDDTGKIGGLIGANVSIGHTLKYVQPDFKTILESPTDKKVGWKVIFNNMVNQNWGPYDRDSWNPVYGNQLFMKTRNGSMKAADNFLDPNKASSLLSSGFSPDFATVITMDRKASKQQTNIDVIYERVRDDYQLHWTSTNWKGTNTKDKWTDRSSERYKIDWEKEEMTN

Q: How did the “binding kinetics and current attenuation of γ-cyclodextrin binding, pore inserted by the present method compared with the conventional method” value turn out when `OC[C@H]1O[C@@H]2O[C@H]3[C@H](O)[C@@H](O)[C@@H](O[C@H]4[C@H](O)[C@@H](O)[C@@H](O[C@H]5[C@H](O)[C@@H](O)[C@@H](O[C@H]6[C@H](O)[C@@H](O)[C@@H](O[C@H]7[C@H](O)[C@@H](O)[C@@H](O[C@H]8[C@H](O)[C@@H](O)[C@@H](O[C@H]9[C@H](O)[C@@H](O)[C@@H](O[C@H]1[C@H](O)[C@H]2O)O[C@@H]9CO)O[C@@H]8CO)O[C@@H]7CO)O[C@@H]6CO)O[C@@H]5CO)O[C@@H]4CO)O[C@@H]3CO` [γ-cyclodextrin] was run?
A: The value was “the same”.
